Reference: ChEMBL document CHEMBL1201862, “PubChem BioAssay data set” (2004)
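All cell lines were grown in 96-well plates and treated with compound for 48 hours. The concentration for 50% growth inhibition is given as GI50.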 Active and inactive are the calls of the source. No stated cut-off is given here; in the data, active = GI50 up to about 1.1 µM and inactive = higher.

Experiments:
Assay in all cases: NCI-60 cell line screen, 48 h
K562 = system: K562
OVCAR-5 = system: OVCAR-5
PC-3 = system: PC-3
CAKI-1 = system: CAKI-1
SF-268 = system: SF-268
OVCAR-8 = system: OVCAR-8
OVCAR-4 = system: OVCAR-4
UACC-62 = system: UACC-62
DU-145 = system: DU-145
SNB-75 = system: SNB-75
MOLT-4 = system: MOLT-4
NCI/ADR-RES = system: NCI/ADR-RES
UACC-257 = system: UACC-257
SNB-19 = system: SNB-19
NCI-H23 = system: NCI-H23
SK-OV-3 = system: SK-OV-3
MDA-MB-435 = system: MDA-MB-435
Malme-3M = system: Malme-3M
ACHN = system: ACHN
SK-MEL-5 = system: SK-MEL-5
TK-10 = system: TK-10
HCT-15 = system: HCT-15
SR = system: SR
A549 = system: A549
SW-620 = system: SW-620
786-0 = system: 786-0
T47D = system: T47D
UO-31 = system: UO-31
HT-29 = system: HT-29
A498 = system: A498
KM12 = system: KM12
NCI-H522 = system: NCI-H522
HOP-62 = system: HOP-62
RPMI-8226 = system: RPMI-8226
HOP-92 = system: HOP-92
HCT-116 = system: HCT-116
SK-MEL-28 = system: SK-MEL-28
CCRF-CEM = system: CCRF-CEM
BT-549 = system: BT-549
MDA-MB-231 = system: MDA-MB-231
U-251 = system: U-251
LOX IMVI = system: LOX IMVI
RXF 393 = system: RXF 393
OVCAR-3 = system: OVCAR-3
M14 = system: M14
IGROV-1 = system: IGROV-1
SK-MEL-2 = system: SK-MEL-2
HCC 2998 = system: HCC 2998
COLO 205 = system: COLO 205
NCI-H460 = system: NCI-H460
NCI-H226 = system: NCI-H226
EKVX = system: EKVX
HL-60 = system: HL-60
SF-295 = system: SF-295
Hs-578T = system: Hs-578T
MCF7 = system: MCF7
MDA-N = system: MDA-N
SF-539 = system: SF-539
SN12C = system: SN12C

CN1CCN(C2=C(Cl)C(=O)c3c(O)ccc(O)c3C2=O)CC1
GI50 (K562): 0.217 µM (active) | GI50 (OVCAR-5): 1.58 µM (inactive) | GI50 (PC-3): 1.73 µM (inactive) | GI50 (CAKI-1): 0.546 µM (active) | GI50 (SF-268): 1.85 µM (inactive) | GI50 (OVCAR-8): 0.223 µM (active) | GI50 (OVCAR-4): 0.377 µM (active) | GI50 (UACC-62): 1.32 µM (inactive) | GI50 (DU-145): 1.78 µM (inactive) | GI50 (SNB-75): 2.03 µM (inactive) | GI50 (MOLT-4): 0.13 µM (active) | GI50 (NCI/ADR-RES): 0.632 µM (active) | GI50 (UACC-257): 0.689 µM (active) | GI50 (SNB-19): 4.99 µM (inactive) | GI50 (NCI-H23): 0.61 µM (active) | GI50 (SK-OV-3): 5.62 µM (inactive) | GI50 (MDA-MB-435): 0.214 µM (active) | GI50 (Malme-3M): 0.196 µM (active) | GI50 (ACHN): 0.286 µM (active) | GI50 (SK-MEL-5): 0.502 µM (active) | GI50 (TK-10): 0.514 µM (active) | GI50 (HCT-15): 0.176 µM | GI50 (SR): 0.094 µM (active) | GI50 (A549): 2.16 µM (inactive) | GI50 (SW-620): 0.187 µM (active) | GI50 (786-0): 0.244 µM (active) | GI50 (T47D): 0.551 µM (active) | GI50 (UO-31): 0.646 µM (active) | GI50 (HT-29): 0.359 µM (active) | GI50 (A498): 2.52 µM (inactive) | GI50 (KM12): 1.99 µM (inactive) | GI50 (NCI-H522): 0.243 µM (active) | GI50 (HOP-62): 1.92 µM (inactive) | GI50 (RPMI-8226): 1.44 µM (inactive) | GI50 (HOP-92): 0.223 µM (active) | GI50 (HCT-116): 0.234 µM (active) | GI50 (SK-MEL-28): 0.995 µM (active) | GI50 (CCRF-CEM): 0.105 µM (active) | GI50 (BT-549): 0.486 µM (active) | GI50 (MDA-MB-231): 0.516 µM (active) | GI50 (U-251): 1.72 µM (inactive) | GI50 (LOX IMVI): 0.635 µM (active) | GI50 (RXF 393): 0.18 µM (active) | GI50 (OVCAR-3): 0.542 µM (active) | GI50 (M14): 0.281 µM (active) | GI50 (IGROV-1): 1.3 µM (inactive) | GI50 (SK-MEL-2): 1.21 µM (inactive) | GI50 (HCC 2998): 2.04 µM (inactive) | GI50 (COLO 205): 0.182 µM (active) | GI50 (NCI-H460): 1.94 µM (inactive) | GI50 (NCI-H226): 2 µM (inactive) | GI50 (EKVX): 1.66 µM (inactive) | GI50 (HL-60): 0.103 µM (active) | GI50 (SF-295): 1.78 µM (inactive) | GI50 (Hs-578T): 2.41 µM (inactive) | GI50 (MCF7): 0.24 µM (active) | GI50 (MDA-N): 0.35 µM (active) | GI50 (SF-539): 0.959 µM (active) | GI50 (SN12C): 0.826 µM (active)

Cc1sc(/N=C/c2c[nH]c3ccccc23)c(C#N)c1C
GI50 (K562): 16.3 µM (inactive) | GI50 (OVCAR-5): > 100 µM (inactive) | GI50 (PC-3): 45.7 µM (inactive) | GI50 (CAKI-1): 56.2 µM (inactive) | GI50 (SF-268): 85.3 µM (inactive) | GI50 (OVCAR-8): 45.5 µM (inactive) | GI50 (OVCAR-4): 35.2 µM (inactive) | GI50 (UACC-62): 20.7 µM (inactive) | GI50 (DU-145): 55.6 µM (inactive) | GI50 (SNB-75): 37.1 µM (inactive) | GI50 (MOLT-4): 23 µM (inactive) | GI50 (NCI/ADR-RES): 74.6 µM (inactive) | GI50 (UACC-257): 44.6 µM (inactive) | GI50 (SNB-19): 61.2 µM (inactive) | GI50 (NCI-H23): 54.1 µM (inactive) | GI50 (SK-OV-3): 88.7 µM (inactive) | GI50 (MDA-MB-435): 32.3 µM (inactive) | GI50 (Malme-3M): 25.9 µM (inactive) | GI50 (ACHN): 29.6 µM (inactive) | GI50 (SK-MEL-5): 18.4 µM (inactive) | GI50 (TK-10): 20 µM (inactive) | GI50 (HCT-15): 24 µM | GI50 (SR): 18.2 µM (inactive) | GI50 (A549): 65 µM (inactive) | GI50 (SW-620): 39.7 µM (inactive) | GI50 (786-0): 27.4 µM (inactive) | GI50 (T47D): 18.6 µM (inactive) | GI50 (UO-31): 48 µM (inactive) | GI50 (HT-29): 6.89 µM (inactive) | GI50 (A498): 28.7 µM (inactive) | GI50 (KM12): 13.7 µM (inactive) | GI50 (NCI-H522): 27.9 µM (inactive) | GI50 (HOP-62): 34.2 µM (inactive) | GI50 (RPMI-8226): 19.7 µM (inactive) | GI50 (HOP-92): 45.7 µM (inactive) | GI50 (HCT-116): 23.4 µM (inactive) | GI50 (SK-MEL-28): > 100 µM (inactive) | GI50 (CCRF-CEM): 15.3 µM (inactive) | GI50 (BT-549): 42.1 µM (inactive) | GI50 (MDA-MB-231): 36.4 µM (inactive) | GI50 (U-251): 21.5 µM (inactive) | GI50 (LOX IMVI): 34.6 µM (inactive) | GI50 (RXF 393): 22.3 µM (inactive) | GI50 (OVCAR-3): 11.2 µM (inactive) | GI50 (M14): 22 µM (inactive) | GI50 (IGROV-1): 21.7 µM (inactive) | GI50 (SK-MEL-2): 30.5 µM (inactive) | GI50 (HCC 2998): 14.9 µM (inactive) | GI50 (COLO 205): > 100 µM (inactive) | GI50 (NCI-H460): 33.1 µM (inactive) | GI50 (NCI-H226): 30.5 µM (inactive) | GI50 (EKVX): 67.9 µM (inactive) | GI50 (HL-60): 21.2 µM (inactive) | GI50 (SF-295): 28.3 µM (inactive) | GI50 (Hs-578T): 58.1 µM (inactive) | GI50 (MCF7): 27.7 µM (inactive) | GI50 (MDA-N): 53.7 µM (inactive) | GI50 (SF-539): 40.4 µM (inactive) | GI50 (SN12C): 74.3 µM (inactive)
